Article PMC11840605, “Crystallographic and Thermodynamic Evidence of Negative Coupling in the Flavin-Dependent Tryptophan Halogenases AbeH and BorH” (ACS Omega, 2025)
Values joined by “and” are separate entries in the source; they are usually repeats but may differ in a detail not shown here. Equal values may be shown once. “Also recorded” adds a separate entry of the source.

Tests used:
BorH [1] = biological target: T1, BorH (uncultured bacterium, UniProt M9QSI0); conditions: previously shown; cited from earlier work
AbeH [2] = biological target: T2, AbeH (uncultured bacterium, UniProt F6LWA5); type: biochemical, uncultured soil actinomycetes; conditions: NaCl or NaBr reaction
Protocol: (§1) To test the ability of BorH and AbeH to chlorinate and brominate other substrates, 100 μL reactions containing 5 μM AbeH or BorH, 10 μM of holo-AbeF or holo-BorF, 100 mM NaCl or NaBr, 2.5 mM NADH, and 0.5 mM substrate in HEPES pH 8.0 were incubated for 12 h at 37 °C with shaking at 230 rpm. The reactions were stopped by heating at 95 °C for 5 min and centrifuged at 12,000g for 5 min. Clarified reaction mixtures were analyzed using RP-HPLC on a Kromasil C18 column (100 Å pore size, 4.6 × 250 mm) mounted on a Waters 2695 HPLC. The gradient was as follows: 0–7.5 min, 5–50% B; 7.5–14 min, 50–100%; 14–25 min, 100% B; 25–40 min 100–5% B with flow rate 0.6 mL/min (Solvent A = H2O/CH3CN 95:5, 0.1% TFA; Solvent B = H2O/CH3CN 5/95, 0.1% TFA). Substrates and products were detected by monitoring UV absorbance at the λmax for each substrate. Product peak fractions were analyzed using ESI-MS on a SYNAPT HDMS mass spectrometer in positive ion mode with leucine enkephalin internal standard.

BorH [3] = biological target: T1, BorH; test: In vitro halogenation of aromatic substrates by BorH (with BorF, NADH, NaCl or NaBr; RP-HPLC); type: biochemical, uncultured soil actinomycetes; conditions: for BorH bromination compared with chlorination of the substrate, in words: same reaction conditions; for Halogenation (chlorination/bromination) of the substrate by BorH, in words: NaCl or NaBr reaction
Protocol: as §1

AbeF = conditions: read-out: KD, flavin binding to AbeF; cited from earlier work
AbeH [4] = biological target: T2, AbeH; test: Isothermal titration calorimetry, ligand into AbeH; type: binding, uncultured soil actinomycetes
Protocol: (§2) ITC experiments were performed using a VP-ITC isothermal titration calorimeter (MicroCal) in 20 mM HEPES pH 7.5, 350 mM NaCl, 1 mM ethylenediamine tetraacetic acid (EDTA) and 15% (v/v) glycerol. Solutions of AbeH, BorH, FAD (Chem-Implex), and Trp (Acros Organics) were prepared in the same buffer and degassed under vacuum at 30 °C for 20 min before loading in the syringe or cell. To analyze formation of binary complexes, AbeH or BorH was placed inside the cell, and ligand (FAD or Trp) was injected. For ternary complex titration, one ligand was preincubated with the macromolecule for 30 min at 30 °C to form binary complexes of AbeH/FAD, AbeH/Trp, BorH/FAD, and BorH/Trp before titrating with the second ligand. To test FADH2 binding to AbeH and BorH, FAD was reduced to FADH2 using sodium dithionite and stored under N2. Formation of FADH2 by sodium dithionite was verified using absorbance and fluorescence spectrophotometry.
(§3) ITC experiments were performed with reference power set to 10 μcal/s and Milli-Q water in the reference cell. All experiments were done with a pretitration delay of 20 min, a 5 min interval between injections, and a filter period of 2 s in high feedback gain mode. All experiments were performed at 310 rpm to mix the components in cell and titrant. All other VP-ITC instrumental parameters were set to default settings. Heats of dilution for all titrants were measured by titrating ligand into buffer for binary complex titrations, and by titrating ligand into a solution containing the other ligand but no protein for ternary complex titration.
1.2 mM FAD (2 μL/1 and 5 μL/19 injections) into 18 μM AbeH (Figure 4A)
0.12 mM FADH2 (2 μL/1 and 15 μL/19 injections) into 7 μM AbeH in the presence of sodium dithionite (Figure 4B)
1.4 mM Trp (3 μL/1 and 10 μL/29 injections) into 43 μM AbeH (Figure S7)
16 mM Trp (2 μL/1 and 10 μL/29 injections) into 18 μM AbeH (Figure 5A)
(§4) Titrations were analyzed by manually integrating each injection, subtracting the heat of dilution, and carrying out nonlinear least-squares fit of the calorimetric binding data to a one-site model using Origin 7.0 (Origin Lab). Trp binding experiments were subtracted by point-by-point heat of dilution, and FAD and FADH2 binding experiments were subtracted using the mean heat of the last three injections. For the Trp binding data, n was fixed to 1 based on expected stoichiometry of 1:1 based on FDH crystal structures and as proposed for lower c-value titrations in the literature.[23],[25],[82] The other parameters were not constrained during fitting.

BorF = conditions: read-out: KD, flavin binding to BorF; cited from earlier work
BorH [5] = biological target: T1, BorH; test: Isothermal titration calorimetry, ligand into BorH; type: binding, uncultured soil actinomycetes
Protocol: as §2, with “Solutions” for “ITC experiments were performed using a VP-ITC isothermal titration calorimeter (MicroCal) in 20 mM HEPES pH 7.5, 350 mM NaCl, 1 mM ethylenediamine tetraacetic acid (EDTA) and 15% (v/v) glycerol. Solutions”
as §3, §4

T1 sequence (M9QSI0 1-529): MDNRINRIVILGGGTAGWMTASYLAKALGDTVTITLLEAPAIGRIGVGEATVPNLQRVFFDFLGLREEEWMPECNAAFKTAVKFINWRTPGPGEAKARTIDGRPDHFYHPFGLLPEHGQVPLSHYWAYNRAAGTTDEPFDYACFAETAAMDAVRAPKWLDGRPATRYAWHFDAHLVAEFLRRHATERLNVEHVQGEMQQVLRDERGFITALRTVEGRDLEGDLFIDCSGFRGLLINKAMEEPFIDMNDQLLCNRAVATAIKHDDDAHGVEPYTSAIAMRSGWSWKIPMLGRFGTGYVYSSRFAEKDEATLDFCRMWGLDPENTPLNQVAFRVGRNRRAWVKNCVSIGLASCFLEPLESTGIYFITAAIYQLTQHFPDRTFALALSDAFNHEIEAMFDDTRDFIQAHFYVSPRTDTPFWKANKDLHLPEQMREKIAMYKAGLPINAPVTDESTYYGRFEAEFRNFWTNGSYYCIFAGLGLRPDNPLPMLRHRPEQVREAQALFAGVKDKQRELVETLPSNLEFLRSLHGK
T2 sequence (F6LWA5 entry or part of it): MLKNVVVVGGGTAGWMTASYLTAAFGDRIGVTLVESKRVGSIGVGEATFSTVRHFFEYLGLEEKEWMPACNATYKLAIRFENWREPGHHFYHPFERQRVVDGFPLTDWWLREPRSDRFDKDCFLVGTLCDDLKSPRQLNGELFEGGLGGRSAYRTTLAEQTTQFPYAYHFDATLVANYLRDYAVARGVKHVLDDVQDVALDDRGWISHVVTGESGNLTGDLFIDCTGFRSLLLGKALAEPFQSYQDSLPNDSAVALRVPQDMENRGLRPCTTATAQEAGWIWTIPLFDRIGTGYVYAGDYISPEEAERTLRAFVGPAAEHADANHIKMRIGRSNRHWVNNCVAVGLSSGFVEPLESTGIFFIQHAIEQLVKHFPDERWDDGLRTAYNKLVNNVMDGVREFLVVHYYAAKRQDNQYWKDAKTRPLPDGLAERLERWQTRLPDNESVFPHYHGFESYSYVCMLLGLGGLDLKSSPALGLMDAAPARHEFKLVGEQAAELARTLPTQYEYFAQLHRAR

Row | SMILES | Halogenation of the substrate by BorH, in words (BorH [1]) | Halogenation (chlorination/bromination) of the substrate by AbeH, in words (AbeH [2]) | BorH bromination compared with chlorination of the substrate, in words (BorH [3]) | Halogenation (chlorination/bromination) of the substrate by BorH, in words (BorH [3]) | other results
1 | O=C(O)CCc1c[nH]c2ccccc12 [3-indolepropionic acid] | halogenate | halogenated |  |  | 
2 | N#Cc1ccc2[nH]ccc2c1 [5-cyanoindole] |  | did not halogenate; also recorded: No activity | higher rate of bromination than chlorination |  | 
3 | N[C@@H](Cc1c[nH]c2ccc(O)cc12)C(=O)O [5-hydroxytryptophan] |  | did not halogenate; also recorded: No activity |  |  | 
4 | Nc1ccc2c(c1)NC(=O)CO2 [6-amino-2h-1,4-benzoxazin-3(4H)-one, 6-amino-2H-1,4-benzoxazin-3(4H)-one] |  | did not halogenate; also recorded: No activity | higher rate of bromination than chlorination | could halogenate | 
5 | Nc1ccc2ncccc2c1 [6-aminoquinoline] | halogenate | chlorinated and brominated | higher rate of bromination than chlorination | halogenated | 
6 | Nc1ccc2cccnc2c1 [7-aminoquinoline] |  | chlorinated and brominated |  | could not halogenate; also recorded: No activity | 
7 | NC(=O)c1ccccc1N [Anthranilamide] | halogenate | halogenated |  | halogenated | 
8 | Cc1cc2c(cc1C)N(C[C@H](O)[C@H](O)[C@H](O)COP(=O)(O)OP(=O)(O)OC[C@H]1O[C@@H](n3cnc4c(N)ncnc43)[C@H](O)[C@@H]1O)c1[nH]c(=O)[nH]c(=O)c1N2 [FADH2] |  |  |  |  | Kd (AbeF): 1500 nM; Kd (AbeH [4]; ITC, read-out: KD, binding to AbeH, ITC): 100 nM and 120 nM; -TDS (-TΔS, ITC, Table S3) (AbeH [4]; cell AbeH): 5.7 kcal/mol; DG (ΔG, ITC, Table S3) (AbeH [4]; cell AbeH): -9.6 kcal/mol; DH (ΔH, ITC, Table S3) (AbeH [4]; cell AbeH): -15.3 ± 0.7 kcal/mol; n (ITC, Table S3) (AbeH [4]; cell AbeH): 0.82 ± 0.03; Kd (BorF): 800 nM; Kd (BorH [5]; ITC, read-out: KD, binding to BorH, ITC): 200 nM and 210 nM; -TDS (-TΔS, ITC, Table S3) (BorH [5]; cell BorH): 15 kcal/mol; DG (ΔG, ITC, Table S3) (BorH [5]; cell BorH): -9.2 kcal/mol; DH (ΔH, ITC, Table S3) (BorH [5]; cell BorH): -24.2 ± 1.6 kcal/mol; n (ITC, Table S3) (BorH [5]; cell BorH): 0.97 ± 0.05
9 | c1ccc2[nH]ccc2c1 [Indole] |  | efficiently chlorinated and brominated | higher rate of bromination than chlorination |  | 
10 | NCCc1c[nH]c2ccc(O)cc12 [Serotonin] |  | did not halogenate; also recorded: No activity |  |  | 
11 | NCCc1c[nH]c2ccccc12 [Tryptamine] | halogenate | No activity |  |  | 
12 | Nc1ccccc1C(=O)CC(N)C(=O)O (centres unmarked) [kynurenine] | halogenate |  |  |  | 
